Results published in patent publication US9365574B2, “Soluble guanylate cyclase activators” (Merck Sharp & Dohme Corp., priority 2010, dated 2016).

System: Spontaneously hypertensive rats (SHR)
Assay: Acute Efficacy in Spontaneously Hypertensive Rats (SHR), telemetry blood pressure
Assay type: in vivo, rat
Source text: Acute Efficacy in Spontaneously Hypertensive Rats (SHR)
Spontaneously hypertensive rats (SHR, male, Charles River) were implanted with DSI TA11PA-C40 telemetry device (Data Sciences, Inc., St. Paul, Minn.) under isoflurane or ketamine/metomidine anesthesia. The telemetry unit catheter was inserted into the descending aorta via the femoral artery and the telemetry device was implanted subcutaneously in the left flank area. Animals were allowed to recover from surgery for 14 days before the start of any studies. Blood pressure, heart rate, and activity signals from conscious, freely moving rats were recorded continuously for 30 seconds every 10 minutes. On the day prior to administration of compound, a single oral dose of vehicle (10% transcutol/20% Cremophor/70% water) was administered to all animals to establish baseline control data. The blood pressure lowering efficacy of compound (PO) or vehicle was evaluated following a single oral gavage. Data were collected as hourly averages, and changes in blood pressure were calculated by subtracting control baseline data on an hourly basis. Animals were maintained on normal diet with a 12 hour light-dark cycle.
Maximum peak decreases of systolic blood pressure (SBP) in SHR at a particular P.O. dose (mpk milligrams per kilogram) for the following representative compounds are provided.

Compound	Maximum peak decrease of systolic blood pressure (SBP) in SHR, Category (single oral dose 0.3 mpk P.O.)	also measured
Cc1ccc2c(-c3nc(N)c4c(n3)NC(=O)C4(C)C(=O)NC3CC3)nn(CCC(F)(F)C(F)(F)F)c2n1 (stereo not drawn) [Example 179, 4-Amino-N-Cyclopropyl-5-Methyl-2-(6-Methyl-1-(3,3,4,4,4-Pentafluorobutyl)-1H-Pyrazolo[3,4-B]Pyridin-3-yl)-6-Oxo-6,7-Dihydro-5H-Pyrrolo[2,3-D]Pyrimidine-5-Carboxamide]	–	Maximum peak decrease of systolic blood pressure (SBP) in SHR, Category (single oral dose 0.1 mpk P.O.): B (Category B=SBP in SHRs 25-40 mmHg)
CC1(c2cn(CC3CC3)nn2)C(=O)Nc2nc(-c3nn(CCC(F)(F)F)c4ncccc34)nc(N)c21 (stereo not drawn) [Example 180, 4-Amino-5-[1-(Cyclopropylmethyl)-1H-1,2,3-Triazol-4-yl]-5-Methyl-2-[1-(3,3,3-Trifluoropropyl)-1H-Pyrazolo[3,4-B]Pyridin-3-yl]-5,7-Dihydro-6H-Pyrrolo[2,3-D]Pyrimidin-6-One]	A (Category A=SBP in SHRs<25 mmHg)	Maximum SBP reduction (dose 0.3 mpk): 18 ± 5 mmHg
CC1(C(=O)NC2CC2)C(=O)Nc2nc(-c3nn(CCC(F)(F)F)c4ncccc34)nc(N)c21 (stereo not drawn) [Example 181, 4-Amino-N-Cyclopropyl-5-Methyl-6-Oxo-2-[1-(3,3,3-Trifluoropropyl)-1H-Pyrazolo[3,4-B]Pyridin-3-yl]-6,7-Dihydro-5H-Pyrrolo[2,3-D]Pyrimidine-5-Carboxamide]	B (Category B=SBP in SHRs 25-40 mmHg)	Maximum SBP reduction (dose 0.3 mpk): 49 ± 2 mmHg
CC1(C(=O)Nc2cccnc2)C(=O)Nc2nc(-c3nn(CCC(F)(F)F)c4ncccc34)nc(N)c21 (stereo not drawn) [Example 182, 4-Amino-5-Methyl-6-Oxo-N-(Pyridin-3-yl)-2-[1-(3,3,3-Trifluoropropyl)-1H-Pyrazolo[3,4-B]Pyridin-3-yl]-6,7-Dihydro-5H-Pyrrolo[2,3-D]Pyrimidine-5-Carboxamide]	–	Maximum SBP reduction (dose 1.0 mpk): 46 ± 11 mmHg; Maximum peak decrease of systolic blood pressure (SBP) in SHR, Category (single oral dose 1 mpk P.O.): B (Category B=SBP in SHRs 25-40 mmHg)
CC1(C(=O)NC2CC2)C(=O)Nc2nc(-c3nn(CCC(F)(F)F)c4nc(Cl)ccc34)nc(N)c21 (stereo not drawn) [Example 183, 4-Amino-2-[6-Chloro-1-(3,3,3-Trifluoropropyl)-1H-Pyrazolo[3,4-B]Pyridin-3-yl]-N-Cyclopropyl-5-Methyl-6-Oxo-6,7-Dihydro-5H-Pyrrolo[2,3-D]Pyrimidine-5-Carboxamide]	C (Category C=SBP in SHRs>40 mmHg)	–
Cc1ccc2c(-c3nc(N)c4c(n3)NC(=O)C4(C)C(=O)NC3CC3)nn(CCC(F)(F)F)c2n1 (stereo not drawn) [Example 184, 4-Amino-N-Cyclopropyll-5-Methyl-2-[6-Methyl-1-(3,3,3-Trifluoropropyl)-1H-Pyrazolo[3,4-B]Pyridin-3-yl]-6-Oxo-6,7-Dihydro-5H-Pyrrolo[2,3-D]Pyrimidine-5-Carboxamide]	A (Category A=SBP in SHRs<25 mmHg)	Maximum SBP reduction (dose 0.3 mpk): 19 ± 5 mmHg
COc1ccc2c(-c3nc(N)c4c(n3)NC(=O)C4(C)C(=O)NC3CC3)nn(CCC(F)(F)F)c2n1 (stereo not drawn) [Example 185, 4-Amino-N-Cyclopropyl-2-[6-Methoxy-1-(3,3,3-Trifluoropropyl)-1H-Pyrazolo[3,4-B]Pyridin-3-yl]-5-Methyl-6-Oxo-6,7-Dihydro-5H-Pyrrolo[2,3-D]Pyrimidine-5-Carboxamide]	–	Maximum SBP reduction (dose 1.0 mpk): 43 ± 7 mmHg; Maximum peak decrease of systolic blood pressure (SBP) in SHR, Category (single oral dose 1 mpk P.O.): C (Category C=SBP in SHRs>40 mmHg)
CNc1nc(-c2nn(CCC(F)(F)C(F)(F)F)c3ncccc23)nc2c1C(C)(c1ccccc1)C(=O)N2 (stereo not drawn) [Example 186, 5-Methyl-4-(Methylamino)-2-[1-(3,3,4,4,4-Pentafluorobutyl)-1H-Pyrazolo[3,4-B]Pyridin-3-yl]-5-Phenyl-5,7-Dihydro-6H-Pyrrolo[2,3-D]Pyrimidin-6-One]	B (Category B=SBP in SHRs 25-40 mmHg)	–
CNc1nc(-c2nn(CCC(F)(F)C(F)(F)F)c3ncccc23)nc2c1C(C)(C(=O)NC1CC1)C(=O)N2 (stereo not drawn) [Example 187, N-Cyclopropyl-5-Methyl-4-(Methylamino)-6-Oxo-2-[1-(3,3,4,4,4-Pentafluorobutyl)-1H-Pyrazolo[3,4-B]Pyridin-3-yl]-6,7-Dihydro-5H-Pyrrolo[2,3-D]Pyrimidine-5-Carboxamide]	B (Category B=SBP in SHRs 25-40 mmHg)	–
CNc1nc(-c2nn(CCC(F)(F)C(F)(F)F)c3cc(Cl)ccc23)nc2c1C(C)(c1ccccc1)C(=O)N2 (stereo not drawn) [Example 188, 2-[6-Chloro-1-(3,3,4,4,4-Pentafluorobutyl)-1H-Indazol-3-yl]-5-Methyl-4-(Methylamino)-5-Phenyl-5,7-Dihydro-6H-Pyrrolo[2,3-D]Pyrimidin-6-One]	B (Category B=SBP in SHRs 25-40 mmHg)	–
CNc1nc(-c2nn(CCC(F)(F)C(F)(F)F)c3ncccc23)nc2c1C(C)(c1nnc(C)o1)C(=O)N2 (stereo not drawn) [Example 189, 5-Methyl-4-(Methylamino)-5-(5-Methyl-1,3,4-Oxadiazol-2-yl)-2-[1-(3,3,4,4,4-Pentafluorobutyl)-1H-Pyrazolo [3,4-B]Pyridin-3-yl]-5,7-Dihydro-6H-Pyrrolo[2,3-D]Pyrimidin-6-One]	C (Category C=SBP in SHRs>40 mmHg)	–
CC1(c2ccccc2)C(=O)Nc2nc(-c3nc(CCC(F)(F)C(F)(F)F)c4ncccn34)nc(N)c21 (stereo not drawn) [Example 191, 4-Amino-5-Methyl-2-[8-(3,3,4,4,4-Pentafluorobutyl)Imidazo[1,5-A]Pyrimidin-6-yl]-5-Phenyl-5,7-Dihydro-6H-Pyrrolo[2,3-D]Pyrimidin-6-One]	B (Category B=SBP in SHRs 25-40 mmHg)	–
CC1(C(N)=O)C(=O)Nc2nc(-c3nn(CCC(F)(F)C(F)(F)F)c4cc(F)ccc34)nc(N)c21 (stereo not drawn) [Example 192, 4-amino-2-[6-fluoro-1-(3,3,4,4,4-pentafluorobutyl)-1H-indazol-3-yl]-5-methyl-6-oxo-6,7-dihydro-5H-pyrrolo[2,3-d]pyrimidine-5-carboxamide]	B (Category B=SBP in SHRs 25-40 mmHg)	–
CC1(C(N)=O)C(=O)Nc2nc(-c3nn(CCC(F)(F)C(F)(F)F)c4ccccc34)nc(N)c21 (stereo not drawn) [Example 193, 4-amino-5-methyl-6-oxo-2-[1-(3,3,4,4,4-pentafluorobutyl)-1H-indazol-3-yl]-6,7-dihydro-5H-pyrrolo[2,3-d]pyrimidine-5-carboxamide]	C (Category C=SBP in SHRs>40 mmHg)	–
CC1(C(=O)NC2CC2)C(=O)Nc2nc(-c3nn(CCC(F)(F)C(F)(F)F)c4ccccc34)nc(N)c21 (stereo not drawn) [Example 194, 4-amino-N-cyclopropyl-5-methyl-6-oxo-2-[1-(3,3,4,4,4-pentafluorobutyl)-1H-indazol-3-yl]-6,7-dihydro-5H-pyrrolo[2,3-d]pyrimidine-5-carboxamide]	C (Category C=SBP in SHRs>40 mmHg)	–
CC1(C(=O)NC2CC2)C(=O)Nc2nc(-c3nn(CCC(F)(F)C(F)(F)F)c4cc(F)ccc34)nc(N)c21 (stereo not drawn) [Example 195, 4-amino-N-cyclopropyl-2-[6-fluoro-1-(3,3,4,4,4-pentafluorobutyl)-1H-indazol-3-yl]-5-methyl-6-oxo-6,7-dihydro-5H-pyrrolo[2,3-d]pyrimidine-5-carboxamide]	C (Category C=SBP in SHRs>40 mmHg)	–
